Experiments:
Assay in all cases: radiometric filter-binding kinase assay, Kinase HotSpot
Details in all cases: compound 0.5 µM; ATP 10 µM
CDK1 CCNA2 (human) = CDK1 CCNA2 (human) (UniProt P06493+P20248)
CDK1 CCNB1 (human) = CDK1 CCNB1 (human) (UniProt P06493+P14635)
CDK2 CCNA2 (human) = CDK2 CCNA2 (human) (UniProt P24941+P20248)
CDK2 CCNE1 (human) = CDK2 CCNE1 (human) (UniProt P24941+P24864)
CDK3 CCNE1 (human) = CDK3 CCNE1 (human) (UniProt Q00526+P24864)
CDK4 CCND1 (human) = CDK4 CCND1 (human) (UniProt P24385+P11802)
CDK4 CCND3 (human) = CDK4 CCND3 (human) (UniProt P30281+P11802)
CDK5 CDK5R1 p25 (human) = CDK5 CDK5R1 p25 (human) (UniProt Q00535+Q15078)
CDK5 CDK5R1 p35 (human) = CDK5 CDK5R1 p35 (human) (UniProt Q00535+Q15078)
CDK6 CCND1 (human) = CDK6 CCND1 (human) (UniProt Q00534+P24385)
CDK6 CCND3 (human) = CDK6 CCND3 (human) (UniProt P30281+Q00534)
Sequence of CDK6 CCND3 (human) (P30281 whole entry, looked up): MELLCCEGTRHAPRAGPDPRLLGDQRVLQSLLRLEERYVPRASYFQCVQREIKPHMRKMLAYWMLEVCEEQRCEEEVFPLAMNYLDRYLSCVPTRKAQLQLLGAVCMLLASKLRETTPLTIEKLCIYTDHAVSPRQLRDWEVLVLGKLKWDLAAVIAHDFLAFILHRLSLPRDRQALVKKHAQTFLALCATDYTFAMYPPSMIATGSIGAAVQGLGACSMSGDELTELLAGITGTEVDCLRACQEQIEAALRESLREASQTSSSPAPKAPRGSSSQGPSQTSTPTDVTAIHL
Sequence of CDK6 CCND3 (human) (Q00534 whole entry, looked up): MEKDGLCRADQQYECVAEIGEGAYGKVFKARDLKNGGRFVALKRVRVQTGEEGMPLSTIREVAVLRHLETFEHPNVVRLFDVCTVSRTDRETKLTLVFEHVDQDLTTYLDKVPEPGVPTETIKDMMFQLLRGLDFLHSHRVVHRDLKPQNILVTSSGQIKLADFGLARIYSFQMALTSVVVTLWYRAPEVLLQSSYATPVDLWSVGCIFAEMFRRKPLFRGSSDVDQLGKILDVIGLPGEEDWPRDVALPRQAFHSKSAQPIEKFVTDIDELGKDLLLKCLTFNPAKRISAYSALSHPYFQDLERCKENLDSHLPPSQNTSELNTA

CDK7 CCNH MNAT1 (human) = CDK7 CCNH MNAT1 (human) (UniProt P50613+P51948+P51946)
CDK9 CCNK (human) = CDK9 CCNK (human) (UniProt O75909+P50750)
Sequence of CDK9 CCNK (human) (O75909 whole entry, looked up): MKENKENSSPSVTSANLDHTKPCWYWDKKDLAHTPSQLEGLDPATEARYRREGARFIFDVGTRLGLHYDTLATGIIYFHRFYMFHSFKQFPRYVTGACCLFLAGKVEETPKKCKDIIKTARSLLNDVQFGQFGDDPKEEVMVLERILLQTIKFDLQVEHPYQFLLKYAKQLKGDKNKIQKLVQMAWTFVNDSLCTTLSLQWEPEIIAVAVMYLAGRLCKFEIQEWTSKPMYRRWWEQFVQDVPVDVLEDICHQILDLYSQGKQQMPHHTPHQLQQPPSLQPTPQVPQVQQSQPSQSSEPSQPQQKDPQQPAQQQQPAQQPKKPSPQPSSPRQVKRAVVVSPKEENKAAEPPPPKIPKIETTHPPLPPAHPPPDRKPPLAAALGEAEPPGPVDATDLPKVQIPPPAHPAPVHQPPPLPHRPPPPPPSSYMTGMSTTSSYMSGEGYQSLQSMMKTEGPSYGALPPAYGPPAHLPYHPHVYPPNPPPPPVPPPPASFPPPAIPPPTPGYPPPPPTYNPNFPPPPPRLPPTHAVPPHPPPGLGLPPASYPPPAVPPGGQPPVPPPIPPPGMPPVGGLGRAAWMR
Sequence of CDK9 CCNK (human) (P50750 whole entry, looked up): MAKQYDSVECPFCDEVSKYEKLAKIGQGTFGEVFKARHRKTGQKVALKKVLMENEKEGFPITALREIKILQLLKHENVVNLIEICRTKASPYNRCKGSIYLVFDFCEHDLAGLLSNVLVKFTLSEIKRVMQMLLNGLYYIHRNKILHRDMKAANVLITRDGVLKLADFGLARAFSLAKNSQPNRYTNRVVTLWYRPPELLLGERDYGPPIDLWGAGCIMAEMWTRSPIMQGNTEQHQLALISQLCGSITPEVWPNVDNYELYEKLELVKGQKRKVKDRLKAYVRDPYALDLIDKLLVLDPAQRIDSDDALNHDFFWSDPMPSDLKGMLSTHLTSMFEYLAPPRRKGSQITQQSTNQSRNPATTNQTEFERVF

CDK9 CCNT1 (human) = CDK9 CCNT1 (human) (UniProt P50750+O60563)
DYRK1B (human) = DYRK1B (human) (UniProt Q9Y463)
LTK (human) = LTK (human) (UniProt P29376)
MAP3K7 TAB1 (human) = MAP3K7 TAB1 (human) (UniProt O43318+Q15750)
STK33 (human) = STK33 (human) (UniProt Q9BYT3)
PRKCH (human) = PRKCH (human) (UniProt P24723)
Sequence of PRKCH (human) (P24723 whole entry, looked up): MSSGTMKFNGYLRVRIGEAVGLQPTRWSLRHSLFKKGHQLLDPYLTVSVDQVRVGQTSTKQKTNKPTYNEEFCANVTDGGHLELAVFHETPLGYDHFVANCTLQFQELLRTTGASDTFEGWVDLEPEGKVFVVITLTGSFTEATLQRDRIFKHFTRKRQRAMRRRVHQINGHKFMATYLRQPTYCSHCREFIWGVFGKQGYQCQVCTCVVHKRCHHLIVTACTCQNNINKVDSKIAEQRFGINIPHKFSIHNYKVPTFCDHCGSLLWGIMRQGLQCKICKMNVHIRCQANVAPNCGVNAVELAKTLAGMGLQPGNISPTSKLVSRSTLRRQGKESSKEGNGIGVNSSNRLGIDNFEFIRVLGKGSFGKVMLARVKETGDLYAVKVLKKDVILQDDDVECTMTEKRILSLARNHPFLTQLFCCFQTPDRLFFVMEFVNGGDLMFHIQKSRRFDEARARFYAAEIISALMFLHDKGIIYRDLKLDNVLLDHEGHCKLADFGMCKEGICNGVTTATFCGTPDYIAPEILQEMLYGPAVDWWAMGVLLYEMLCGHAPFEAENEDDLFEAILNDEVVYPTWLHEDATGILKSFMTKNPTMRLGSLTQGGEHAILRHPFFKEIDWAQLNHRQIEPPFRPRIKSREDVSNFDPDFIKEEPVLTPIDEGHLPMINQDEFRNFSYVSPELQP

[1] = system: FLT4 (human), P35916 [Q890H]
Sequence of FLT4 (human), P35916 [Q890H] (P35916 whole entry, looked up, stated change not applied): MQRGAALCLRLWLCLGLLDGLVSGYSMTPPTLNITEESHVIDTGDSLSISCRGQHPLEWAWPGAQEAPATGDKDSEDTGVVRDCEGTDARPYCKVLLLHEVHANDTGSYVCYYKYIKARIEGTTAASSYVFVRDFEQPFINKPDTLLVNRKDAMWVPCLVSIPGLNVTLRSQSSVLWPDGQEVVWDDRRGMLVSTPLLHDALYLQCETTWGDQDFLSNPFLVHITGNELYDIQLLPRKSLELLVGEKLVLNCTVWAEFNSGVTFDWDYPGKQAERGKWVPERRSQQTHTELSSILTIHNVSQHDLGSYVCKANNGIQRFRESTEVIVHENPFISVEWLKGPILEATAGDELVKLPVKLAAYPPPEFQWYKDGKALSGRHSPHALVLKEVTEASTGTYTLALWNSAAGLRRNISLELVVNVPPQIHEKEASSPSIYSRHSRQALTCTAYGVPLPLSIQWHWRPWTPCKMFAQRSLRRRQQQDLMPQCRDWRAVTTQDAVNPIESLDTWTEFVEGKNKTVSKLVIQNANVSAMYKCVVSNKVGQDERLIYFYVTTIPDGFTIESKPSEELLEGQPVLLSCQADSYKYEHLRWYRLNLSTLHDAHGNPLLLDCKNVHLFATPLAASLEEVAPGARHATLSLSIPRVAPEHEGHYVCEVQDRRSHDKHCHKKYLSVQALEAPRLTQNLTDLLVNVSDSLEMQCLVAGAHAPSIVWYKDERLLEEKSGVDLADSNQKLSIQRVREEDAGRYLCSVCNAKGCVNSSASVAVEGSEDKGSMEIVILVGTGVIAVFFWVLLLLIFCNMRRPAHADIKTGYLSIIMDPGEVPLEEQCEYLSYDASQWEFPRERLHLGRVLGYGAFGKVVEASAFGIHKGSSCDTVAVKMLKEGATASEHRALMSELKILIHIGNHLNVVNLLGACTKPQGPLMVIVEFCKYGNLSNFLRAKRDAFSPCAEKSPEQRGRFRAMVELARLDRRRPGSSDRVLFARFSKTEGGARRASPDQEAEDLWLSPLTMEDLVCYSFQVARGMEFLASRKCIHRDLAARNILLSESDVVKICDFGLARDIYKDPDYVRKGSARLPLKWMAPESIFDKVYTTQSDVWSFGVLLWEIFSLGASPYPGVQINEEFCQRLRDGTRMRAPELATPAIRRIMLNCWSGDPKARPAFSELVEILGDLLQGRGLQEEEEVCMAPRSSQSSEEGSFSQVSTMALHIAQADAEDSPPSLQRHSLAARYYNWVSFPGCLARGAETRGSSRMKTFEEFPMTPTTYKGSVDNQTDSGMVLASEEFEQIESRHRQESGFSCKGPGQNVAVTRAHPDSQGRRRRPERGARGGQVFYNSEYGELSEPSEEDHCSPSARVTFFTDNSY

[2] = system: MAP2K6 (human), P52564 [S207E/T211E]
[3] = system: MKNK1 (human), Q9BUB5 [T385D; 165-205 del]
[4] = system: PRKCQ (human), Q04759 [P330L]
Sequence of PRKCQ (human), Q04759 [P330L] (Q04759 whole entry P330L, looked up): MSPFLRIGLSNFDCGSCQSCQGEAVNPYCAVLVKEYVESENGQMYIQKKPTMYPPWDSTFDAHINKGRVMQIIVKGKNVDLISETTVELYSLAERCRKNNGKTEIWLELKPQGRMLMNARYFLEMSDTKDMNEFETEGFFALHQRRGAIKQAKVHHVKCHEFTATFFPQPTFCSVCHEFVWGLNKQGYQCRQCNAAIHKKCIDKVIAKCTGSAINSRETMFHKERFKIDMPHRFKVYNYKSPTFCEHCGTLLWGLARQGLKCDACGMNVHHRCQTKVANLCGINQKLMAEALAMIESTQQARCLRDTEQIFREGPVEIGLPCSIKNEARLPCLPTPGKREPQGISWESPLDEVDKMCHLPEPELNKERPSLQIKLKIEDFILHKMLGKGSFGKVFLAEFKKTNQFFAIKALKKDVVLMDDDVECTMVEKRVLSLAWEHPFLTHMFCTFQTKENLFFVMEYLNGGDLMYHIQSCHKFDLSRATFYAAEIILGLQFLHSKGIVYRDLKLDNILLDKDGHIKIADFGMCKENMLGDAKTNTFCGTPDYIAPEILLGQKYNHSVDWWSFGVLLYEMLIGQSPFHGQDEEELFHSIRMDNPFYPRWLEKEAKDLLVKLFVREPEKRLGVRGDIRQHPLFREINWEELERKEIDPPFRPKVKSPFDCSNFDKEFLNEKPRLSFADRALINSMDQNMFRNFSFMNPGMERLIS

Sequence of CDK2 CCNA2 (human) (P20248 whole entry, looked up, other chains not shown): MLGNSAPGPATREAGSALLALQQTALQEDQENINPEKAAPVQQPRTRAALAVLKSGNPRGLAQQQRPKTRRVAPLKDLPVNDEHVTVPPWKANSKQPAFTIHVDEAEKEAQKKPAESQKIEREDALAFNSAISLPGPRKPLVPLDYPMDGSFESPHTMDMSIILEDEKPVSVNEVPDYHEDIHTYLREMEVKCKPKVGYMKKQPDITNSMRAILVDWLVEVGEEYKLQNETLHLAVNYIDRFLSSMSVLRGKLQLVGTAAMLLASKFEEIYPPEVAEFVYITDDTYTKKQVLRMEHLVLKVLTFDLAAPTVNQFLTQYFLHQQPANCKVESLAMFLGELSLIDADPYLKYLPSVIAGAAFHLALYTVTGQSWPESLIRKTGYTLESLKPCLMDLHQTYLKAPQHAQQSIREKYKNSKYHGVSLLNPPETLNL

| Structure (SMILES) | residual activity [1] [%] | residual activity [2] [%] | residual activity [3] [%] | residual activity [4] [%] | also measured |
| --- | --- | --- | --- | --- | --- |
| NCCNc1ncc(C(N)=O)c(Nc2cccc(C(F)(F)F)c2)n1 |  |  |  |  | residual activity (CDK1 CCNA2 (human)): 88.3%; residual activity (CDK1 CCNB1 (human)): 81.7%; residual activity (CDK2 CCNA2 (human)): 97.6%; residual activity (CDK2 CCNE1 (human)): 89%; residual activity (CDK3 CCNE1 (human)): 95.3%; residual activity (CDK4 CCND1 (human)): 108%; residual activity (CDK4 CCND3 (human)): 94.8%; residual activity (CDK5 CDK5R1 p25 (human)): 92.4%; residual activity (CDK5 CDK5R1 p35 (human)): 84.2%; residual activity (CDK6 CCND1 (human)): 94.6%; residual activity (CDK6 CCND3 (human)): 100%; residual activity (CDK7 CCNH MNAT1 (human)): 98.5%; residual activity (CDK9 CCNK (human)): 95.6%; residual activity (CDK9 CCNT1 (human)): 82%; residual activity (DYRK1B (human)): 85.9%; residual activity (LTK (human)): 84.8%; residual activity (MAP3K7 TAB1 (human)): 71.2%; residual activity (STK33 (human)): 81.9% |
| CN1CCN(c2ccc3nc(-c4c(N)c5c(F)cccc5[nH]c4=O)[nH]c3c2)CC1 |  |  |  |  | residual activity (CDK1 CCNA2 (human)): 93.6%; residual activity (CDK1 CCNB1 (human)): 90.9%; residual activity (CDK2 CCNA2 (human)): 91%; residual activity (CDK2 CCNE1 (human)): 92.3%; residual activity (CDK3 CCNE1 (human)): 92.3%; residual activity (CDK4 CCND1 (human)): 79.5%; residual activity (CDK4 CCND3 (human)): 89.6%; residual activity (CDK6 CCND1 (human)): 74.6%; residual activity (CDK6 CCND3 (human)): 31.9%; residual activity (CDK7 CCNH MNAT1 (human)): 104%; residual activity (CDK9 CCNK (human)): 91.1%; residual activity (CDK9 CCNT1 (human)): 97.7%; residual activity (DYRK1B (human)): 87.9%; residual activity (LTK (human)): 92.5%; residual activity (MAP3K7 TAB1 (human)): 19.3%; residual activity (PRKCH (human)): 103%; residual activity (STK33 (human)): 60.7% |
| O=C1c2ccccc2-c2n[nH]c3cccc1c23 |  |  |  |  | residual activity (CDK1 CCNA2 (human)): 85.6%; residual activity (CDK1 CCNB1 (human)): 63.4%; residual activity (CDK2 CCNA2 (human)): 76.1%; residual activity (CDK2 CCNE1 (human)): 79.5%; residual activity (CDK3 CCNE1 (human)): 94.3%; residual activity (CDK4 CCND1 (human)): 96.3%; residual activity (CDK4 CCND3 (human)): 104%; residual activity (CDK6 CCND1 (human)): 88.6%; residual activity (CDK6 CCND3 (human)): 88.6%; residual activity (CDK7 CCNH MNAT1 (human)): 94.7%; residual activity (CDK9 CCNK (human)): 96%; residual activity (CDK9 CCNT1 (human)): 99.3%; residual activity (DYRK1B (human)): 65.7%; residual activity (LTK (human)): 77.8%; residual activity (MAP3K7 TAB1 (human)): 59.3%; residual activity (PRKCH (human)): 87.6%; residual activity (STK33 (human)): 47.7% |
| CCOC(=O)c1c(C)[nH]c(/C=C2\C(=O)Nc3ccccc32)c1C | 79.2 | 96.5 | 112 | 116 |  |
| CS(=O)c1ccc(-c2nc(-c3ccc(F)cc3)c(-c3ccncc3)[nH]2)cc1 (stereo unspecified) | 119 | 102 | 98.5 | 111 |  |
| O=c1cc(-c2cccc3c2Sc2ccccc2S3)oc(N2CCOCC2)c1 | 104 | 107 | 99.5 | 112 |  |
| COc1ccc(COc2ccc(Cc3cnc(N)nc3N)cc2OC)cc1 | 105 | 87.4 | 113 | 98 |  |
| NC(=O)c1ccc(N(C(N)=O)c2c(F)cccc2F)nc1-c1ccc(F)cc1F | 97.5 | 96.5 | 91.4 | 85.1 |  |
| Cc1cn(-c2cc(NC(=O)c3ccc(C)c(Nc4nccc(-c5cccnc5)n4)c3)cc(C(F)(F)F)c2)cn1 |  |  |  |  | residual activity (CDK1 CCNA2 (human)): 99.7%; residual activity (CDK1 CCNB1 (human)): 97.8%; residual activity (CDK2 CCNA2 (human)): 95.5%; residual activity (CDK2 CCNE1 (human)): 98.9%; residual activity (CDK3 CCNE1 (human)): 95.2%; residual activity (CDK4 CCND1 (human)): 97%; residual activity (CDK4 CCND3 (human)): 108%; residual activity (CDK5 CDK5R1 p25 (human)): 91.7%; residual activity (CDK5 CDK5R1 p35 (human)): 105%; residual activity (CDK6 CCND1 (human)): 97.1%; residual activity (CDK6 CCND3 (human)): 128%; residual activity (CDK7 CCNH MNAT1 (human)): 109%; residual activity (CDK9 CCNK (human)): 97.9%; residual activity (CDK9 CCNT1 (human)): 94.7%; residual activity (DYRK1B (human)): 92.8%; residual activity (LTK (human)): 101%; residual activity (MAP3K7 TAB1 (human)): 89.2%; residual activity (PRKCH (human)): 121%; residual activity (STK33 (human)): 87.1% |
| N#CC(C#N)=C(N)/C(C#N)=C/c1ccc(O)cc1 | 95.9 | 94 | 77.2 | 99.8 |  |
| O=C(Nc1ccc(Cl)cc1)c1ccccc1NCc1ccncc1 | 44.8 | 117 | 118 | 110 |  |
| CCCC(=O)Oc1ccc2[nH]c(C(=O)c3cc4ccccc4[nH]3)cc2c1 | 98.2 | 97.3 | 101 | 111 |  |
| O=c1c(-c2ccc(F)cc2)c(-c2ccncc2)[nH]n1-c1ccc(Cl)cc1 | 91.5 | 79.4 | 93.9 | 119 |  |
| COc1cc2ncnc(Nc3cccc(Cl)c3)c2cc1OC | 99.3 | 88.7 | 80.8 | 105 |  |
| Nc1ncnc2[nH]nc(Nc3ccc(F)cc3)c12 | 92.9 | 87.6 | 75.2 | 103 |  |
| O=C1NC(=O)c2c1c1c3ccccc3n3c1c1c2c2ccccc2n1C1CCC3O1 | 4.97 | 19.3 | 48.6 | 43.2 |  |

Now from value to compound, other results behind:

| residual activity [1] [%] | residual activity [2] [%] | residual activity [3] [%] | residual activity [4] [%] | Structure (SMILES) | also measured |
| --- | --- | --- | --- | --- | --- |
| 94 | 93.2 | 105 | 122 | CC(C)N(CCC(=O)c1ccc2ccccc2c1)Cc1ccccc1 |  |
| 50.8 | 99.3 | 109 | 131 | Nc1ncnc2c1c(-c1ccc(Oc3ccccc3)cc1)cn2C1CCCC1 |  |
| 65.1 | 116 | 74.1 | 103 | Cn1cc(/C=C2\C(=O)Nc3ccc(S(N)(=O)=O)cc32)c2ccccc21 |  |
| 88.1 | 92.6 | 46 | 89.2 | CCOc1cc2ncnc(Nc3cccc(Br)c3)c2cc1OCC |  |
| 97 | 94.5 | 55.2 | 110 | CNc1cc2c(Nc3cccc(Br)c3)ncnc2cn1 |  |
| 108 | 92.9 | 96.2 | 83.8 | c1ccc(-c2n[nH]c3c2oc2ccccc23)cc1 |  |
| 91.2 | 85.9 | 98.4 | 96.9 | COc1ccc(CNC(=O)Nc2ncc([N+](=O)[O-])s2)cc1 |  |
| 89.7 | 104 | 39.9 | 96.9 | Cn1cnc2cc3c(Nc4cccc(Br)c4)ncnc3cc21 |  |
| 98.2 | 96.1 | 61.1 | 89.6 | O=C(O)/C=C/c1cc(Br)c(Br)c(Br)c1Br |  |
| 101 | 94 | 98.9 | 123 | Oc1ccc(Nc2nc(-c3ccc(Cl)cc3)cs2)cc1 |  |
| 86.2 | 104 | 92.7 | 100 | Cc1nc2cc3nc(-c4cccs4)cnc3cc2n1C |  |
| 114 | 109 | 100 | 12.7 | CN(C)C[C@H]1CCn2c(c(C3=C(c4cn(C)c5ccccc45)C(=O)NC3=O)c3ccccc32)C1 |  |
| 50.8 | 98.2 | 102 | 105 | O=C1Nc2cc(Br)ccc2/C1=C1/Nc2ccccc2/C1=N\O |  |

From the kinase profiling compilation of Christmann-Franck et al. (2016)
